Counter-ions that a name gives are not always drawn.
Columns and labels:
[1] = biological target: T1, recombinant human Dopamine Subtype D2s receptors (Homo sapiens, UniProt P14416); assay: Dopamine D2 selectivity assay, [3H]-spiperone binding to membranes; settings: inhibition of [3H]-spiperone binding, read-out: D2 bind pIC50 (converted)
T1 construct: purchased Perkin Elmer
In short: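 Human D2s receptor membranes incubated 2 h at room temperature with 0.16 nM [3H]-spiperone and test compound in HEPES buffer pH 7.4 (120 mM NaCl, 0.1% gelatin). Non-specific binding defined with 10 μM haloperidol; filter-bound radioactivity counted, pIC50 from four-parameter logistic fit.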

[2] = biological target: T2, Adrenergic β2 (Homo sapiens, UniProt P07550); assay: Adrenergic β2 mediated cAMP production in H292 cells (AlphaScreen cAMP detection); format: cell-based; design: key to β2 Int Act: fraction of formoterol maximum activity (formoterol = 1); settings: for β2 Int Act: Intrinsic Activity as a fraction relative to the maximum activity determined for formoterol; for EC50: cAMP production, 60 minutes at room temperature, 300 μM rolipram, read-out: β2 pEC50 (converted)
T2 construct: Adherent H292 cells were removed from tissue culture flasks; endogenous in cells; host or cells: H292 cells
T2 sequence (P07550 whole entry): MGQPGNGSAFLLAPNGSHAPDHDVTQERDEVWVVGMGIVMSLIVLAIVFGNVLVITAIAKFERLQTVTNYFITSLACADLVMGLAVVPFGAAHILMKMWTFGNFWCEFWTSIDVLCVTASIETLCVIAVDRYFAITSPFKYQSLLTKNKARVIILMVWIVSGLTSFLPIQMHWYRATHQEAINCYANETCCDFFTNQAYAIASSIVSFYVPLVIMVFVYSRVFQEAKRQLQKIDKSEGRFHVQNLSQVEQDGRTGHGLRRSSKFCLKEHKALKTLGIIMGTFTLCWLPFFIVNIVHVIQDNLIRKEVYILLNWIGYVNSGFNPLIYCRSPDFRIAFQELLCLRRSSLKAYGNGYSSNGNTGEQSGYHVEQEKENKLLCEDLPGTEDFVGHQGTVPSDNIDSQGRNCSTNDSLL
In short: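 H292 cells pre-treated 10 min with rolipram (300 μM final), then given agonist for 60 min at room temperature in HBSS/10 mM HEPES pH 7.4, 1.6% DMSO final. Lysate cAMP measured by AlphaScreen against a cAMP standard curve. Four-parameter fit gives pEC50; intrinsic activity relative to formoterol maximum.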

[3] = biological target: T3, recombinant human adrenergic beta 1 receptors (Homo sapiens, UniProt P08588); assay: Adrenergic β1 selectivity assay, [125I]-Iodocyanopindolol binding to membranes; settings: inhibition of [125I]-Iodocyanopindolol binding, read-out: β1 bind pIC50 (converted)
T3 construct: purchased Euroscreen
T3 sequence (P08588 whole entry): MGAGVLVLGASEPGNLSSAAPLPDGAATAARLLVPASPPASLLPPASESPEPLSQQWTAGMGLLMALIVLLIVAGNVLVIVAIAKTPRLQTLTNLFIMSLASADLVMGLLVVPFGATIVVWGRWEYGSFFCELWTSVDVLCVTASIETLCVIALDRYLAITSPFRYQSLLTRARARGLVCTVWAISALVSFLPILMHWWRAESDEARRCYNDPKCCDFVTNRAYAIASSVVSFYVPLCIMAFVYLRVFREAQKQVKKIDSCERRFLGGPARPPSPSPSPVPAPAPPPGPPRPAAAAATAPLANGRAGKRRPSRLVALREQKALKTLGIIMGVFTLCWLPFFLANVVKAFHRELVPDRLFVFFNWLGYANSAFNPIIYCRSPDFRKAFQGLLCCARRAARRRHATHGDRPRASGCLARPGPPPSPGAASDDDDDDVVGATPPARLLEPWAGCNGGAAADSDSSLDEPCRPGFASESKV
Procedure: Membranes containing recombinant human adrenergic beta 1 receptors were obtained from Euroscreen. These were diluted in Assay Buffer (50 mM HEPES, 1 mM EDTA, 120 mM NaCl, 0.1% gelatin, pH 7.4) to provide a final concentration of membranes that gave a clear window between maximum and minimum specific binding.
Assays were performed in U-bottomed 96-well polypropylene plates. 10 μL [^125I]-Iodocyanopindolol (0.036 nM final concentration) and 10 μL of test compound (10× final concentration) were added to each test well. For each assay plate 8 replicates were obtained for [^125I]-Iodocyanopindolol binding in the presence of 10 μL vehicle (10% (v/v) DMSO in Assay Buffer; defining maximum binding) or 10 μL Propranolol (10 μM final concentration; defining non-specific binding (NSB)). Membranes were then added to achieve a final volume of 100 μL. The plates were incubated for 2 hours at room temperature and then filtered onto PEI coated GF/B filter plates, pre-soaked for 1 hour in Assay Buffer, using a 96-well plate Tomtec cell harvester. Five washes with 250 μL wash buffer (50 mM HEPES, 1 mM EDTA, 120 mM NaCl, pH 7.4) were performed at 4° C. to remove unbound radioactivity. The plates were dried then sealed from underneath using Packard plate sealers and MicroScint-O (50 μL) was added to each well. The plates were sealed (TopSeal A) and filter-bound radioactivity was measured with a scintillation counter (TopCount, Packard BioScience) using a 3-minute counting protocol.
Total specific binding (B0) was determined by subtracting the mean NSB from the mean maximum binding. NSB values were also subtracted from values from all other wells. […] Data was fitted to a four parameter logistic equation to determine the compound potency, which was expressed as pIC50 (negative log molar concentration inducing 50% inhibition of [^125I]-Iodocyanopindolol binding).

T1 sequence (P14416 1-414 isoform P14416-2): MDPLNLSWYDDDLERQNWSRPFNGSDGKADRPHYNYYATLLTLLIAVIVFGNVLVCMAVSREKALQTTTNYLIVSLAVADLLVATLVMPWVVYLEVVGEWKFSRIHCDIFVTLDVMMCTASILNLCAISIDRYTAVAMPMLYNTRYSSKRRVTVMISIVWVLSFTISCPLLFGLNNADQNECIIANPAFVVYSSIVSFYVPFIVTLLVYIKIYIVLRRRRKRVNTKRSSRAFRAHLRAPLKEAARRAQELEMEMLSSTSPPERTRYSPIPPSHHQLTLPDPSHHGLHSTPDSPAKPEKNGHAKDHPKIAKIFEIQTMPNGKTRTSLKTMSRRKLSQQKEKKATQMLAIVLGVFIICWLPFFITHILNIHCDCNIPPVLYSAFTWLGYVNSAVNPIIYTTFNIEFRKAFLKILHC

| Compound | IC50 [1] | β2 Int Act [2] | EC50 [2] | IC50 [3] |
| --- | --- | --- | --- | --- |
| CCCC[C@@H](C)N(CCNCCc1ccc(O)c2c1OCC(=O)N2)C(=O)CCNCCc1ccc(Cl)c(Cl)c1 [Example 55, (R)-3-(3,4-Dichlorophenethylamino)-N-(hexan-2-yl)-N-(2-(2-(5-hydroxy-3-oxo-3,4-dihydro-2H-benzo[b][1,4]oxazin-8-yl)ethylamino)ethyl)propanamide bis(trifluoroacetate)] | 50.1 nM | 0.92 | 31.6 nM | 1000 nM |
| O=C1COc2c(CCNCCN(C(=O)CCOCCc3cccc(Cl)c3)C3CCCCC3)ccc(O)c2N1 [Example 77, 3-(3-Chlorophenethoxy)-N-cyclohexyl-N-(2-(2-(5-hydroxy-3-oxo-3,4-dihydro-2H-benzo[b][1,4]oxazin-8-yl)ethylamino)ethyl)propanamide trifluoroacetate] | 2000 nM | 0.97 | 2 nM | 3160 nM |
| CCCC[C@@H](C)N(CCNCCc1ccc(O)c2c1OCC(=O)N2)C(=O)CCNCCc1ccc(F)c(C)c1 [Example 47, (R)-3-(4-Fluoro-3-methylphenethylamino)-N-(hexan-2-yl)-N-(2-(2-(5-hydroxy-3-oxo-3,4-dihydro-2H-benzo[b][1,4]oxazin-8-yl)ethylamino)ethyl)propanamide bis(trifluoroacetate)] | 50.1 nM | 0.89 | 1.58 nM | 631 nM |
| O=C1COc2c(CCNCCN(C(=O)CCOCCc3ccccc3F)C3CCCCC3)ccc(O)c2N1 [Example 76, N-Cyclohexyl-3-(2-fluorophenethoxy)-N-(2-(2-(5-hydroxy-3-oxo-3,4-dihydro-2H-benzo[b][1,4]oxazin-8-yl)ethylamino)ethyl)propanamide trifluoroacetate] | 2510 nM | 1.1 | 1.58 nM | 2000 nM |
| CCCC[C@@H](C)N(CCNCCc1ccc(O)c2c1OCC(=O)N2)C(=O)CCNCCc1cc(F)cc(F)c1 [Example 51, (R)-3-(3,5-Difluorophenethylamino)-N-(hexan-2-yl)-N-(2-(2-(5-hydroxy-3-oxo-3,4-dihydro-2H-benzo[b][1,4]oxazin-8-yl)ethylamino)ethyl)propanamide bis(trifluoroacetate)] | 39.8 nM | 0.94 | 1.58 nM | 2000 nM |
| O=C1COc2c(CCNCCN(C(=O)CCNCCc3ccc(F)c(Cl)c3)C3CCCCC3)ccc(O)c2N1 [Example 37, 3-(3-Chloro-4-fluorophenethylamino)-N-cyclohexyl-N-(2-(2-(5-hydroxy-3-oxo-3,4-dihydro-2H-benzo[b][1,4]oxazin-8-yl)ethylamino)ethyl)propanamide bis(trifluoroacetate)] | 100 nM | 0.89 | 2 nM | 1000 nM |
| O=C1COc2c(CCNCCN(C(=O)CCNCCc3ccc(Cl)cc3)C3CCCCC3)ccc(O)c2N1 [Example 32, 3-(4-Chlorophenethylamino)-N-cyclohexyl-N-(2-(2-(5-hydroxy-3-oxo-3,4-dihydro-2H-benzo[b][1,4]oxazin-8-yl)ethylamino)ethyl)propanamide bis(trifluoroacetate)] | 200 nM | 1.03 | 3.16 nM | 2000 nM |
| O=CNc1cc(CCNCCN(C(=O)CCNCCc2ccccc2)C2CCCCC2)ccc1O [Example 21, N-Cyclohexyl-N-(2-(3-formamido-4-hydroxyphenethylamino)ethyl)-3-(phenethylamino)propanamide] | 1260 nM | 0.83 | 31.6 nM | > 10000 nM |
| O=C1COc2c(CCNCCN(C(=O)CCNCCc3ccccc3)C3CCCCC3)ccc(O)c2N1 [Example 23, N-Cyclohexyl-N-(2-(2-(5-hydroxy-3-oxo-3,4-dihydro-2H-benzo[b][1,4]oxazin-8-yl)ethylamino)ethyl)-3-(phenethylamino)propanamide bis(trifluoroacetate)] | 316 nM | 0.79 | 0.631 nM | 631 nM |
| O=C1COc2c(CCNCCN(C(=O)CCNCCc3ccc(Cl)cc3Cl)C3CCCCC3)ccc(O)c2N1 [Example 31, N-Cyclohexyl-3-(2,4-dichlorophenethylamino)-N-(2-(2-(5-hydroxy-3-oxo-3,4-dihydro-2H-benzo[b][1,4]oxazin-8-yl)ethylamino)ethyl)propanamide bis(trifluoroacetate)] | 100 nM | 0.94 | 6.31 nM | 3160 nM |
| CCOc1cccc(CCNCCC(=O)N(CCNCCc2ccc(O)c3[nH]c(=O)ccc23)C2CCCCCC2)c1 [Example 11, N-Cycloheptyl-3-(3-ethoxyphenethylamino)-N-(2-(2-(8-hydroxy-2-oxo-1,2-dihydroquinolin-5-yl)ethylamino)ethyl)propanamide bis(trifluoroacetate)] | 501 nM | 0.65 | 79.4 nM | > 10000 nM |
| CC[C@@H](C)N(CCNCCc1ccc(O)c2[nH]c(=O)ccc12)C(=O)CCOCCc1ccccc1.Cl [Example 79, (R)—N-sec-Butyl-N-(2-(2-(8-hydroxy-2-oxo-1,2-dihydroquinolin-5-yl)ethylamino)ethyl)-3-phenethoxypropanamide hydrochloride] | > 10000 nM | 0.92 | 50.1 nM | > 10000 nM |
| CCCC[C@@H](C)N(CCNCCc1ccc(O)c2c1OCC(=O)N2)C(=O)CCNCCc1cccc(F)c1F [Example 53, (R)-3-(2,3-Difluorophenethylamino)-N-(hexan-2-yl)-N-(2-(2-(5-hydroxy-3-oxo-3,4-dihydro-2H-benzo[b][1,4]oxazin-8-yl)ethylamino)ethyl)propanamide bis(trifluoroacetate)] | 39.8 nM | 0.99 | 6.31 nM | 2510 nM |
| O=C1COc2c(CCNCCN(C(=O)CCNCCc3cccc(F)c3F)C3CCCCC3)ccc(O)c2N1 [Example 36, N-Cyclohexyl-3-(2,3-difluorophenethylamino)-N-(2-(2-(5-hydroxy-3-oxo-3,4-dihydro-2H-benzo[b][1,4]oxazin-8-yl)ethylamino)ethyl)propanamide bis(trifluoroacetate)] | 631 nM | 0.91 | 1.26 nM | 3160 nM |
| CC[C@@H](C)N(CCNCCc1ccc(O)c2c1OCC(=O)N2)C(=O)CCNCCc1ccc(Cl)c(Cl)c1 [Example 58, (R)—N-sec-Butyl-3-(3,4-dichlorophenethylamino)-N-(2-(2-(5-hydroxy-3-oxo-3,4-dihydro-2H-benzo[b][1,4]oxazin-8-yl)ethylamino)ethyl)propanamide dihydrochloride] | 39.8 nM | 0.91 | 7.94 nM | 2000 nM |
| CC(C)[C@@H](C)N(CCNCCc1ccc(O)c2c1OCC(=O)N2)C(=O)CCNCCc1ccc(Cl)c(Cl)c1 [Example 59, (R)-3-(3,4-Dichlorophenethylamino)-N-(2-(2-(5-hydroxy-3-oxo-3,4-dihydro-2H-benzo[b][1,4]oxazin-8-yl)ethylamino)ethyl)-N-(3-methylbutan-2-yl)propanamide dihydrochloride] | 100 nM | 0.87 | 3.98 nM | 2000 nM |

— patent publication US20100056508A1, “AMINE DERIVATIVES AND THEIR USE IN BETA-2-ADRENORECEPTOR MEDIATED DISEASES” (ASTRAZENECA AB, priority 2006, published 2010)
